Key:
Mouse GLP-1R = biological target: T1, Mouse GLP-1R (Mus musculus, UniProt O35659); experiment: Functional antagonism of mouse GLP1 receptors, cAMP accumulation assay; type: cell-based; details: CHO-K1 cells stably expressing mouse GLP-1R; stimulated with EC80 of Exendin-4; HitHunter cAMP assay; IC50 corrected by Cheng-Prusoff adaptation
T1 construct: expressed in transfected cells
T1 sequence (O35659 22-463): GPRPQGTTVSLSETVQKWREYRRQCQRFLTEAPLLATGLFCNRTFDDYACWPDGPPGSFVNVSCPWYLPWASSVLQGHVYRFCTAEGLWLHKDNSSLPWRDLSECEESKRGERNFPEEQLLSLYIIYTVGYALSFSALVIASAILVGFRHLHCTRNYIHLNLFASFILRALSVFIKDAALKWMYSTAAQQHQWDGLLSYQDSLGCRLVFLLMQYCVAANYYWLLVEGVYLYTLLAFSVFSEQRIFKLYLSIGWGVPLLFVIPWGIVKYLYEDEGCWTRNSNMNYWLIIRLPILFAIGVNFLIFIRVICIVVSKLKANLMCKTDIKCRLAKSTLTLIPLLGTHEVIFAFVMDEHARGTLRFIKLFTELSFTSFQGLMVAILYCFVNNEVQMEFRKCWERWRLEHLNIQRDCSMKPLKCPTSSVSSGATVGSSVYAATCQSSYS
Method: Antagonist inhibition of cAMP production upon stimulation of GLP-1R with agonist ligand was assessed using HitHunter cAMP assay (DiscoverX). The method followed antagonist procedure steps provided in the kit. In brief, CHO-K1 cells stably expressing mouse GLP-1R were thawed and plated at 10K cells per well in CP05 reagent in the total volume of 20 μl into white walled, 384-well plates and incubated overnight at 37° C. in Cytomat. On the day of the assay, the media was replaced with 15 μl of HBSS/10 mM HEPES. DMSO stock of test compounds were serially diluted in DMSO and then further diluted in the HBSS/10 mM HEPES, 5 μl of each concentration were added to the plate followed by 30 min incubation at 37° C. Final DMSO concentration in the assay was 1%. Cells were stimulated for further 30 min at 37° C. by addition of an equivalent to EC80 concentration of Exendin-4. Intracellular accumulation of cAMP was stopped by addition of the HitHunter detection reagents in lysis buffer, provided in the kit. Following 1-hour incubation at RT in the dark, plates were read on Envision (Perkin Elmer). Dotmatics Studies software was used for fitting data to a four-parameter concentration response curve. Calculated IC50 values were corrected for the agonist concentration using an adaptation of the Cheng-Prusoff equation to generate functional pKb values: […]

Human GLP-1R = biological target: T2, Human GLP-1R (Homo sapiens, UniProt P43220); experiment: Functional antagonism of human GLP1 receptors, cAMP accumulation assay; type: cell-based; details: HEK cells infected with GLP-1R Bacmam; stimulated with EC80 of GLP-1(7-36) amide; HiRange cAMP kit; IC50 corrected by Cheng-Prusoff adaptation
T2 construct: expressed in transfected cells; host or cells: HEK cells, BacMam transduction
T2 sequence (P43220 24-463): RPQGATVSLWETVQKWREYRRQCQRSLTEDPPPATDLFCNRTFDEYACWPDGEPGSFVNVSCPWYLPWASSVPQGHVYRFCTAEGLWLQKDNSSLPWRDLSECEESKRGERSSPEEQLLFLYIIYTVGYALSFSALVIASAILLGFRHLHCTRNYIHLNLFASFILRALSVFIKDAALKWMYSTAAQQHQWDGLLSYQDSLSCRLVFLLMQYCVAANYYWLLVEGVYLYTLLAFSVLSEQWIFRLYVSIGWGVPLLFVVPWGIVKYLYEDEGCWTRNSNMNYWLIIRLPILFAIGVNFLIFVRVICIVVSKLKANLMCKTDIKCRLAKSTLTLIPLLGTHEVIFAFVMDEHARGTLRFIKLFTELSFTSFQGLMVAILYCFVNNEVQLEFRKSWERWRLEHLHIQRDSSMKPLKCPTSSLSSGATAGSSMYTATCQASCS
Method: The method followed a two-step protocol provided in the kit. In brief, HEK cells infected with 1% v/v GLP-1R Bacmam for 24 h were harvested using cell dissociation solution (Gibco), centrifuged and resuspended in the assay buffer (HBSS (Lonza) supplemented with 0.5 mM IBMX (Tocris)). DMSO stock of test compounds were serially diluted in the assay buffer and added to 96-well half area white plates (Costar). Final DMSO concentration in the assay was 0.3%. 20K cells per well were added to plates followed by 30 min incubation (humidified air (5% CO2), 37° C.). […] Intracellular accumulation of cAMP was stopped by addition of the HTRF detection reagents in lysis buffer, provided in the kit. Following 1-hour incubation at RT, plates were read on Pherastar FS (BMG Labtech, Inc.) Dotmatics Studies software was used for fitting data to a four-parameter concentration response curve. Calculated IC50 values were corrected for the agonist concentration using an adaptation of the Cheng-Prusoff equation to generate functional pKb values: […]

Question: How did the “Mouse GLP-1R antagonist cAMP fpKb” value (Mouse GLP-1R) turn out when exendin(9-39)amide [Ex 9-39] was run?
Answer: Its value is 7.2.

Question: What about the “Human GLP-1R antagonist cAMP fpKb” value (Human GLP-1R) of the same substance?
Answer: Its value is 7.8.
